The values that follow come from patent publication US20130059850A1, “AZA-INDOLE DERIVATIVES USEFUL AS MODULATORS OF FAAH” (MERCK SHARP & DOHME CORP., priority 2010, published 2013).

Experiment [1] has as its target T1, human FAAH (Fatty Acid Amide Hydrolase) (Homo sapiens, UniProt O00519).
T1 construct: The full length FAAH was subcloned into the mammalian expression vector, pcDEF.neo, using XbaI and EcoRI restriction sites; expressed in transfected cells
T1 sequence (O00519 1-579): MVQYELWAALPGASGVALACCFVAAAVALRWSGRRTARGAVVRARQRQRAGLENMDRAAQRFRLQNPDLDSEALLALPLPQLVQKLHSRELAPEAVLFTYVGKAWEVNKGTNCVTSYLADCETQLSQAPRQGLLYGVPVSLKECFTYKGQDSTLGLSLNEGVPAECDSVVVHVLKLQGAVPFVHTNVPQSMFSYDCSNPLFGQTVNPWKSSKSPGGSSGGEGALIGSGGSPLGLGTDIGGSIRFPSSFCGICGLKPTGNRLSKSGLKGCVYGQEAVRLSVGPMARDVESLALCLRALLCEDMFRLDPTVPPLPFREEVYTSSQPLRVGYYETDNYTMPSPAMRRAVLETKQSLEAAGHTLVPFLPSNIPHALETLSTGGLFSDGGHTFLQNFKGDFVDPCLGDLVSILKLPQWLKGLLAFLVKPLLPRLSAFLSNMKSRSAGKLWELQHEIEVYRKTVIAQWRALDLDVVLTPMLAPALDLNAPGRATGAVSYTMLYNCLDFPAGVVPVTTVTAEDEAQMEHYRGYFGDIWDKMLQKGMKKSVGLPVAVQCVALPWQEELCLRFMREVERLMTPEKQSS
Description: FAAH whole cell assay on CHO cells expressing human FAAH (human WC), AAMCA fluorescent substrate. In kind it is cell-based. As to conditions: human FAAH_CHO whole cell. An excerpt: (§1) To assist in assay development stable cell lines for human, murine and rat full length FAAH were developed. Human FAAH cDNA (Accession No: NM_001441.1) was purchased from Origene (Rockville, Md.). The full length FAAH was subcloned into the mammalian expression vector, pcDEF.neo, using XbaI and EcoRI restriction sites and used for stable cell line generation.
Murine (accession number NM_010173) and Rat FAAH (accession number NM_024132) was amplified by reverse transcriptase polymerase chain reaction (RT-PCR) from brain cDNA (BD Biosciences, San Jose, Calif.) using primers 1 and 2 or primers 1 and 3 respectively (see Table). The resulting PCR product was ligated into pCR4 TOPO and DNA sequence confirmed. The full length murine FAAH was subcloned into the mammalian expression vector, pcDEFneo using either EcoRI (murine) or KpnI and EcoRI (rat) restriction sites. Chinese hamster ovary cells (CHO) were transfected following manufacturers protocol (AMAXA). Forty eight hours post transfection, cells were trypsinized and transferred to 96 well plates in Iscove's DMEM media supplemented with 2 mM Glutamine, 10% fetal calf serum, 1 mg/ml geneticin and HT Supplement (0.1 mM sodium hypoxanthine, 0.016 mM thymidine) in order to isolate single clones. Following selection in geneticin, individual clones were selected and FAAH activity was assessed using a whole cell fluorescent anandamide assay, modified from Ramarao et al (2005). Following removal of tissue culture media cells were dislodged following addition of Cellstripper (Mediatech, Inc. Manassas, Va.) and transferred to 96 well black clear bottom assay plate, centrifuged at 1,000 rpm for 3 mins and media removed and replaced with assay buffer (50 mM Tris pH8.0, 1 mM EDTA, 0.1% fatty acid free BSA). The reaction was initiated by addition of fluorescent substrate, AMC Arachidonoyl Amide (Cayman Chemical, Ann Arbor, Mich.) to 1 μM and reaction allowed to proceed for 2 hours at room temperature. Release of fluorescence was monitored in a CytoFluor Multiplate Reader. Cells expressing the highest amount of FAAH activity were selected for study with FAAH inhibitors.
(§2) (American Radiolabeled Chemicals; 1 mCi/ml) with FAAH (Life Sciences (1995), 56, 1999-2005 and Journal of Pharmacology and Experimented Therapeutics (1997), 283, 729-734), Analytical. Biochemistry (2003), 318, 270-5. In addition, routine assays were performed monitoring hydrolysis of arachidonyl-7-amino-4-methylcoumarin amide (AAMCA) by following increase in fluorescence upon release of 7-amino 4-methyl coumarin (λEX=355 nm, μEM=460 nm). Analytical. Biochemistry (2005). 343, 143-51
Assays are performed on either cell lysate or microsome fractions prepared as described or in whole cell format employing either the fluorescent substrate AAMCA (Cayman chemical, Ann Arbor, Mich.,) or ^3H-anandamide ([ETHANOLAMINE-1-3H] American Radiolabeled Chemicals; 1 mCi/ml). The cell lysate or microsome assay is performed in black PerkinElmer OptiPlates-384F by adding FAAH_CHO (whole cell (human whole cell or human WC), cell lysate (human cell lysate or human LY) or microsome) in assay buffer (50 mM Phosphate, pH 8.0, 1 mM EDTA, 200 mM KCl, 0.2% glycerol, 0.1% fatty acid free BSA) to each well, followed by either DMSO or compound and allowed to incubate at 22-25° C. for fifteen minutes. AAMCA substrate was used to achieve a final concentration of 1 μM and reaction allowed to proceed at room temperature for 1-3 hours. Fluorescent release as a measure of FAAH activity was monitored by reading the plate in a Envision plate Reader (Ex: 360/40 nM; Em: 460/40 nM). Whole cell assay is conducted with cells harvested after rinsing tissue culture flasks three times with Ca^++Mg^++ free PBS, incubating for […] in Enzyme free dissociation media and centrifuging for 5 minutes at 1,000 rpm in table top centrifuge. […]

For experiment [2], the target named is T1, human FAAH (Fatty Acid Amide Hydrolase). As to the kind of experiment: FAAH enzyme assay on CHO cell lysate expressing human FAAH (human LY), AAMCA fluorescent substrate. Type of experiment: biochemical. To be noted: human FAAH_CHO cell lysate.
Excerpt: as §1
CHO cells expressing FAAH were used to prepare either crude cell lysate or microsome fractions. To harvest cells, tissue culture media was decanted, the monolayer washed three times with Ca^++Mg^++ free PBS and cells recovered after […] in enzyme free dissociation media (Millipore Corp, Billerica, Mass.). Cells were collected by centrifuging at 2000 rpm for 15 min. and the cell pellet re-suspended with 50 mM HEPES (pH 7.4) containing 1 mM EDTA and the protease inhibitors aprotinin (1 mg/ml) and leupeptin (100 μM). The suspension was sonicated at 4° C. and the cell lysate recovered after centrifuging at 12,000×g (14,600 rpm, SS34 rotor) for 20 min at 4° C. to form a crude pellet of cell debris, nuclei, peroxisomes, lysosomes, and mitochondria; the supernatant or cell lysate was used for FAAH enzyme assay. In some cases, microsomes fractions enriched in FAAH were prepared by centrifuging the cell lysate further at 27,000 rpm (100,000×g) in SW28 rotor for 50 minutes at 4° C. The pellet containing FAAH-enriched microsomes was re-suspend in 50 mM HEPES, (pH 7.4) 1 mM EDTA, and any remaining DNA sheared by passage of material through a 23 gauge needle and aliquots of enzyme were store at −80° C. prior to use.
as §2
Assays are performed on either cell lysate or microsome fractions prepared as described or in whole cell format employing either the fluorescent substrate AAMCA (Cayman chemical, Ann Arbor, Mich.,) or ^3H-anandamide ([ETHANOLAMINE-1-3H] American Radiolabeled Chemicals; 1 mCi/ml). The cell lysate or microsome assay is performed in black PerkinElmer OptiPlates-384F by adding FAAH_CHO (whole cell (human whole cell or human WC), cell lysate (human cell lysate or human LY) or microsome) in assay buffer (50 mM Phosphate, pH 8.0, 1 mM EDTA, 200 mM KCl, 0.2% glycerol, 0.1% fatty acid free BSA) to each well, followed by either DMSO or compound and allowed to incubate at 22-25° C. for fifteen minutes. AAMCA substrate was used to achieve a final concentration of 1 μM and reaction allowed to proceed at room temperature for 1-3 hours. Fluorescent release as a measure of FAAH activity was monitored by reading the plate in a Envision plate Reader (Ex: 360/40 nM; Em: 460/40 nM). Whole cell assay is conducted with cells harvested after rinsing tissue culture flasks three times with Ca^++Mg^++ free PBS, incubating for […] in Enzyme free dissociation media and centrifuging for 5 minutes at 1,000 rpm in table top centrifuge. Cells are resuspended in assay buffer at desired cell number in (4×10^4 cells/assay in 96-well format; 1×10^4 cells/assay in 384-well format) and assayed as described.

With `Clc1ccc(Sc2c(CNCc3ccccc3)[nH]c3ncccc23)cc1` [Example J6, N-benzyl-1-{3-[(4-chlorophenyl)sulfanyl]-1H-pyrrolo[2,3-b]pyridin-2-yl}methanamine], the IC50 in experiment [1] was determined as 400 nM; in experiment [2], 132 nM.

On to `O=C(NC1CCCCC1)c1[nH]c2ncccc2c1Sc1ccc(Cl)cc1` [Example C17], for which the IC50 in experiment [1] stood at 101 nM; in experiment [2], 30.4 nM.

As to `OC(c1ccc(-c2[nH]c3ncccc3c2Sc2ccc(Cl)cn2)cc1)C(F)(F)F` (stereo not drawn) [Example A25], the results for the IC50 in experiment [1] and in experiment [2] were 147 nM and 37.6 nM, respectively.

Take `O=C1NCc2cc(-c3[nH]c4ncccc4c3Sc3ccc(Cl)cn3)ccc21` [Example A34]: the half-maximal inhibitory concentration (IC50) in experiment [1] is 17.1 nM; in experiment [2], 12.3 nM.

Regarding `Cn1cccc2c(Sc3ccc(Cl)cn3)c(-c3ccc4[nH]ncc4c3)nc1-2` [Example E9], the IC50 in experiment [1] is 82.5 nM; in experiment [2], 15.4 nM.

Consider `Clc1ccc(Sc2c(-c3ccc4c(c3)OCO4)[nH]c3ncccc23)nc1` [Example B5, 2-(1,3-benzodioxol-5-yl)-3-[(5-chloropyridin-2-yl)sulfanyl]-1H-pyrrolo[2,3-b]pyridine], for which the values for the IC50 in experiment [1] and in experiment [2] were 13.7 nM and 2.58 nM, respectively.

Take `OCCn1cccc2c(Sc3ccc(Cl)cn3)c(-c3ccc4c(c3)OCO4)nc1-2` [Example E20]: the 50% inhibitory concentration (IC50) is 1040 nM in experiment [1] and 289 nM in experiment [2].

For `CC1(C)CC(NCc2[nH]c3ncccc3c2Sc2ccc(Cl)cc2)CC(C)(C)O1` [Example J12], the IC50 in experiment [1] amounted to 202 nM; in experiment [2], 59 nM.

For `O=C(Nc1ccc2c(c1)OCCO2)c1[nH]c2ncccc2c1Sc1ccc(Cl)cc1` [Example C14], the IC50 in experiment [1] stood at 28.5 nM; in experiment [2] it was 7.43 nM.

With `Cn1cccc2c(Sc3ccc(Cl)cn3)c(-c3ccc4c(c3)OCO4)nc1-2` [Example E11], the values for the IC50 in experiment [1] and in experiment [2] were 71.6 nM and 26.6 nM, respectively.

As to `O=C1NCc2cc(-c3[nH]c4ncccc4c3Sc3ccc(Cl)cc3)ccc21` [Example A32], the half-inhibitory concentration (IC50) is 15.1 nM in experiment [1] and 7.84 nM in experiment [2].

Consider `Cc1noc(C)c1-c1[nH]c2ncccc2c1Sc1ccc(Cl)cc1` [Example B30], for which the IC50 in experiment [1] is 1110 nM; in experiment [2] it was 208 nM.

On to `Nc1ccc(-c2[nH]c3ncccc3c2Sc2ccc(Cl)cc2)cc1` [Example A27], for which the IC50 in experiment [1] was 124 nM; in experiment [2] it was 5.56 nM.

Turning to `OC(c1ccc(-c2[nH]c3ncccc3c2Sc2ccc(Cl)cc2)cc1)C(F)(F)F` (stereo not drawn) [Example A12], the IC50 in experiment [1] came to 27 nM; in experiment [2], 5.29 nM.

On to `CC(C)Oc1ccc(-c2[nH]c3ncccc3c2Sc2ccc(Cl)cc2)cc1` [Example A17], for which the IC50 in experiment [1] is 154 nM; in experiment [2] it was 11.6 nM.

With `O=C(O)C1CC=C(c2[nH]c3ncccc3c2Sc2ccc(Cl)cc2)CC1` (stereo not drawn) [Example B47], the 50% inhibitory concentration (IC50) was found to be 573 nM in experiment [1] and 252 nM in experiment [2].

Take `CC(C)C(O)c1[nH]c2ncccc2c1Sc1ccc(Cl)cc1` (stereo not drawn) [Example J11]: the half-inhibitory concentration (IC50) in experiment [1] was 5890 nM; in experiment [2], 695 nM.

Take `NS(=O)(=O)c1ccc(-c2[nH]c3ncccc3c2Sc2ccc(Cl)cc2)cc1` [Example A7, 4-{3-[(4-chlorophenyl)sulfanyl]-1H-pyrrolo[2,3-b]pyridin-2-yl}benzenesulfonamide]: the IC50 in experiment [1] is 21.9 nM; in experiment [2], 4.39 nM.

In the case of `CC(O)C/C=C/c1[nH]c2ncccc2c1Sc1ccc(Cl)cc1` (stereo not drawn) [Example B38], the figures for the IC50 in experiment [1] and in experiment [2] were 352 nM and 22.5 nM, respectively.

Regarding `Clc1ccc(Sc2c(-c3ccc4[nH]ncc4c3)[nH]c3ncccc23)cc1` [Example I3, 5-{3-[(4-chlorophenyl)sulfanyl]-1H-pyrrolo[2,3-b]pyridin-2-yl}-1H-indazole], the IC50 was 10.7 nM in experiment [1] and 2.15 nM in experiment [2].

For the compound `CC(C)(O)c1ccc(-c2[nH]c3ncccc3c2Sc2ccc(Cl)cc2)cc1` [Example A31], the IC50 in experiment [1] amounted to 42 nM; in experiment [2], 13.2 nM.
